Experimental data: the supplement of paper PMC5752671
Structures can show the parent of a compound that is named as a salt.

Key:
MOLM/16 = assay: area under dose-response curve (cell viability) (AUC (arbitrary, % viability x log concentration)); higher = less sensitive (more viable); details: 4 days
Outline: (§1)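 Fourteen leukemia cell lines were plated on extracellular-matrix-coated 384-well plates. Drugs were added robotically the next day at eight concentrations spanning 4–5 logs within 10^–12–10^–4 M, tailored per drug, in duplicate. Viability was read with CellTiter-Glo after 4 days. The value is the area under a four-parameter sigmoid fitted to the duplicate-averaged dose-response.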

OCI-AML3 = assay: as above; details: 4 days
Outline: as §1

EOL-1 = assay: as above; details: 4 days
Outline: as §1

HL60 = assay: as above; details: 4 days
Outline: as §1

THP-1 = assay: as above; details: 4 days
Outline: as §1

OCI-AML2 = assay: as above; details: 4 days
Outline: as §1

SKM1 = assay: as above; details: 4 days
Outline: as §1

PL-21 = assay: as above; details: 4 days
Outline: as §1

NB4 = assay: as above; details: 4 days
Outline: as §1

KASUMI1 = assay: as above; details: 4 days
Outline: as §1

U937 = assay: as above; details: 4 days
Outline: as §1

KG1 = assay: as above; details: 4 days
Outline: as §1

MOLM/13 = assay: as above; details: 4 days
Outline: as §1

MV4.11 = assay: as above; details: 4 days
Outline: as §1

AML.083 = primary AML patient cells; assay: area under dose-response curve (cell viability), primary AML patient cells (AUC (arbitrary, % viability x log concentration; ComBat batch-corrected)); higher = less sensitive (more viable); details: 4 days; sample type: primary AML patient cells
Outline: (§2)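 Cryopreserved primary AML cells were thawed with DNase, cultured 48 h in IMDM with horse serum, fetal calf serum and low stem cell factor, then blast-enriched. They were plated at 5000 cells/well on extracellular-matrix-coated 384-well plates, with drugs added next day at eight concentrations within 10^–12–10^–4 M, in duplicate. CellTiter-Glo viability was read after 4 days. Area under fitted four-parameter curves was ComBat batch-corrected.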

AML062 = primary AML patient cells; assay: as above; details: 4 days; sample type: primary AML patient cells
Outline: as §2

AML098 = primary AML patient cells; assay: as above; details: 4 days; sample type: primary AML patient cells
Outline: as §2

AML099 = primary AML patient cells; assay: as above; details: 4 days; sample type: primary AML patient cells
Outline: as §2

AML012 = primary AML patient cells; assay: as above; details: 4 days; sample type: primary AML patient cells
Outline: as §2

AML.030 = primary AML patient cells; assay: as above; details: 4 days; sample type: primary AML patient cells
Outline: as §2

| Compound | area under dose-response curve (MOLM/16) | area under dose-response curve (OCI-AML3) | area under dose-response curve (EOL-1) | area under dose-response curve (HL60) | area under dose-response curve (THP-1) | area under dose-response curve (OCI-AML2) | area under dose-response curve (SKM1) | area under dose-response curve (PL-21) | area under dose-response curve (NB4) | area under dose-response curve (KASUMI1) | area under dose-response curve (U937) | area under dose-response curve (KG1) | area under dose-response curve (MOLM/13) | area under dose-response curve (MV4.11) | area under dose-response curve (AML.083) | area under dose-response curve (AML062) | area under dose-response curve (AML098) | area under dose-response curve (AML099) | area under dose-response curve (AML012) | area under dose-response curve (AML.030) |
| --- | --- | --- | --- | --- | --- | --- | --- | --- | --- | --- | --- | --- | --- | --- | --- | --- | --- | --- | --- | --- |
| CN1CC[C@H](c2c(O)cc(O)c3c(=O)cc(-c4ccccc4Cl)oc23)[C@H](O)C1 [Flavopiridol] | 369 | 420 | 459 | 474 | 442 | 372 | 286 | 355 | 436 | 476 | 388 | 300 | 436 | 408 | 548 | 549 | 493 | 511 | 593 | 533 |
| Nc1nc(F)nc2c1ncn2[C@@H]1O[C@H](CO)[C@@H](O)[C@@H]1O [Fludarabine] | 625 | 632 | 570 | 643 | 676 | 564 | 624 | 573 | 648 | 655 | 592 | 714 | 646 | 594 | 654 | 633 | 673 | 697 | ≥ 700 | 676 |
| c1cc(-c2sc(-c3ccncc3)c(-c3ccncc3)c2-c2ccncc2)ccn1 [GANT58] | 611 | 645 | 599 | 733 | 735 | 603 | 650 | 604 | 624 | 704 | 630 | 691 | 643 | 671 | 745 | ≥ 857 | 781 | 780 | 803 | 771 |
| CS(=O)(=O)c1ccc(C(=O)Nc2ccc(Cl)c(-c3ccccn3)c2)c(Cl)c1 [GDC-0449] | 631 | 683 | 608 | 747 | 754 | 640 | 670 | 619 | 632 | 730 | 662 | 754 | 693 | 680 | 787 | 839 | 860 | 791 | 897 | 790 |
| CS(=O)(=O)N1CCN(Cc2cc3nc(-c4cccc5[nH]ncc45)nc(N4CCOCC4)c3s2)CC1 [GDC-0941] | 363 | 521 | 411 | 465 | 546 | 505 | 469 | 420 | 574 | 402 | 472 | 591 | 560 | 495 | 576 | 574 | 524 | 629 | 590 | ≥ 676 |
| COc1cc2ncnc(Nc3ccc(F)c(Cl)c3)c2cc1OCCCN1CCOCC1 [Gefitinib] | 584 | 596 | 570 | 716 | 679 | 628 | 637 | 575 | 631 | 707 | 657 | 726 | 619 | 585 | 753 | 787 | 788 | ≥ 833 | ≥ 833 | 741 |
| Nc1ccn([C@@H]2O[C@H](CO)[C@@H](O)C2(F)F)c(=O)n1 [Gemcitabine HCl] | 15.7 | 210 | 7.66 | 71.4 | 17.2 | 3.7 | 32.7 | 201 | 1.3 | 119 | 6.6 | 66.3 | 3.55 | 2 | 545 | 600 | 567 | 638 | 650 | 659 |
| NC(=O)NO [Hydroxyurea] | 617 | 612 | 664 | 645 | 675 | 583 | 624 | 584 | 647 | 672 | 630 | 675 | 602 | 602 | 692 | 798 | 716 | 725 | 745 | 778 |
| CCc1c2c(nc3ccc(OC(=O)N4CCC(N5CCCCC5)CC4)cc13)-c1cc3c(c(=O)n1C2)COC(=O)[C@]3(O)CC [Irinotecan HCl] | 516 | 569 | 513 | 625 | 627 | 514 | 574 | 564 | 563 | 618 | 571 | 627 | 498 | 499 | 674 | 761 | 657 | 696 | 720 | 754 |
| CS(=O)(=O)CCNCc1ccc(-c2ccc3ncnc(Nc4ccc(OCc5cccc(F)c5)c(Cl)c4)c3c2)o1 [Lapatinib] | 611 | 630 | 625 | 747 | 706 | 585 | 610 | 579 | 606 | 703 | 623 | 765 | 649 | 630 | 751 | 768 | 843 | 777 | 767 | 736 |
| Nc1cccc2c1CN(C1CCC(=O)NC1=O)C2=O (stereo not given) [Lenalidomide] | 514 | 657 | 540 | 745 | 719 | 632 | 613 | 621 | 647 | 739 | 641 | 754 | 599 | 671 | 767 | 797 | 947 | 766 | 816 | 758 |
| O=NN(CCCl)C(=O)NC1CCCCC1 [Lomustine] | 611 | 672 | 552 | 719 | 720 | 558 | 637 | 604 | 635 | 711 | 659 | 733 | 657 | 622 | 751 | ≥ 892 | 858 | 792 | 867 | 799 |
| CC(C)C[C@@H](C=O)NC(=O)[C@H](CC(C)C)NC(=O)[C@H](CC(C)C)NC(=O)OCc1ccccc1 [MG132] | 428 | 452 | 429 | 487 | 522 | 352 | 421 | 488 | 475 | 484 | 464 | 543 | 534 | 402 | 631 | 584 | 619 | 602 | 637 | 673 |
| NC1(c2ccc(-c3nc4ccn5c(=O)[nH]nc5c4cc3-c3ccccc3)cc2)CCC1 [MK2206] | 418 | 523 | 416 | 611 | 530 | 497 | 506 | 427 | 521 | 449 | 374 | 649 | 510 | 515 | 578 | ≥ 654 | 523 | 617 | 564 | 571 |
| COc1cc(Nc2ncc3c(n2)-c2ccc(Cl)cc2C(c2c(F)cccc2OC)=NC3)ccc1C(=O)O [MLN8237] | 181 | 355 | 221 | 467 | 195 | 373 | 384 | 406 | 304 | 452 | 254 | 441 | 306 | 279 | 707 | 748 | 739 | 734 | ≥ 778 | 753 |
| Nc1ccccc1NC(=O)c1ccc(CNC(=O)OCc2cccnc2)cc1 [MS-275] | 405 | 436 | 359 | 490 | 558 | 408 | 390 | 450 | 408 | 466 | 449 | 592 | 459 | 436 | 571 | 546 | 480 | 582 | ≤ 454 | 549 |
| Cc1ccc(NC(=O)c2ccc(CN3CCN(C)CC3)cc2)cc1Nc1nc(-c2cccnc2)cs1 [Masitinib] | 623 | 666 | 361 | 669 | 659 | 614 | 639 | 599 | 633 | 555 | 648 | 693 | 693 | 596 | 625 | 616 | 591 | 679 | 646 | 658 |
| N[C@@H](Cc1ccc(N(CCCl)CCCl)cc1)C(=O)O [Melphalan] | 542 | 527 | 456 | 621 | 628 | 423 | 561 | 569 | 515 | 610 | 540 | 644 | 537 | 423 | 756 | 685 | 747 | 744 | 826 | 772 |
| S=c1[nH]cnc2nc[nH]c12 [Mercaptopurine] | 635 | 646 | 620 | 708 | 663 | 571 | 645 | 577 | 637 | 693 | 670 | 694 | 603 | 632 | 794 | 855 | 874 | 808 | 829 | 783 |
